{"source": "patent US20150079105A1", "about": "“TREATMENT OF ACUTE INFLAMMATION IN THE RESPIRATORY TRACT” (UCL Business PLC, priority 2012, published 2015)", "type_in_all_cases": "in vivo", "key": {"[1]": {"test_system": "TNF, IL-6, CXCL1, CXCL2, CCL2, CCL7", "test": "Cytokine and chemokine protein levels in lung homogenates of LPS challenged mice (Luminex bead array, ELISA)", "conditions": "5 mg/kg i.p. 30 min after LPS, 3 h", "experimental": "FIG. 8. Mice were killed three hours after LPS (125 μg/kg i.n.) or saline challenge with or without the PAR1 antagonist RWJ-58259 (5 mg/kg) dosed i.p. after 30 min. Lungs were removed and homogenized. Levels of TNF (A), IL-6 (B) CXCL1 (C), and CXCL2 (D) protein were measured in lung homogenates using a Luminex bead array. Protein levels of CCL2 (H) and CCL7 (I) were measured from lung homogenates by ELISA. Mean and sem values of n=5 per group are shown. Data were analysed by one way ANOVA with Newman-Keuls post hoc test: ***p<0.001, **p<0.01, *p<0.05. […]\nCytokine and chemokine levels were measured by ELISA.\nIn order to confirm the LDA analysis of mRNA expression, the level of protein in lung homogenates was measured."}, "S. pneumoniae": {"test_system": "S. pneumoniae", "test": "S. pneumoniae challenge of mice (bacteria-induced ALI and host defense)", "conditions": "5 mg/kg i.p. after 30 min", "experimental": "FIG. 4. Mice were killed three hours after inoculation with S. pneumoniae (serotype 19, 50 μl/mouse, 5×10^6 CFU/mouse i.n.) with and without the PAR1 antagonist RWJ-58259 (5 mg/kg) dosed therapeutically i.p. after 30 min. Lungs were lavaged (1.5 ml PBS total) and total BAL fluid leukocytes (a) and neutrophils (b) were quantified. S. pneumoniae was recovered from lung homogenates and individual colonies counted (c). Panels show mean values for n=5/group from two separate experiments. Data were analysed by one way ANOVA with Neuman-Keuls Post Hoc test: ***p<0.0001, *p<0.05.\nFIG. 5. Mice were killed three hours after inoculation with S. pneumoniae (serotype 2, clinical isolate D39, 50 μl/mouse, 5×10^6 CFU/mouse i.n.) with and without the PAR1 antagonist RWJ-58259 (5 mg/kg) dosed therapeutically i.p. after 30 min. Lungs were lavaged (1.5 ml PBS total) and total BAL fluid leukocytes (A), macrophages (B) and neutrophils (C) were quantified. Bronchoalveolar lavage fluid was collected and levels of thrombin-anti-thrombin (TAT) and serum albumin were quantified by ELISA (D and E). Panels show mean values for n=5/group from two separate experiments. Data were analysed by one way ANOVA with Neuman-Keuls Post Hoc test: ***p<0.0001, *p<0.05.\nFIG. 6. Mice were killed three hours after inoculation with S. pneumoniae (serotype 2, clinical isolate D39, 50 μl/mouse, 5×10^6 CFU/mouse i.n.) with and without the PAR1 antagonist RWJ-58259 (5 mg/kg) dosed therapeutically i.p. after 30 min. Lungs were lavaged (1.5 ml PBS total) and bacterial colony forming units (cfu) counted after 3 h (A) and 24 h (B). Bacterial invasive disease was measured by cfu in the lung (C) and spleen (D) after 24 h. Data were analysed by one way ANOVA with Neuman-Keuls Post Hoc test: n.s. not significant. […]\nIn order to examine the influence of PAR1 during host defense and in a model of bacteria-induced ALI, mice were challenged with S. pneumoniae (5×10^6 CFU/mouse, i.n.), which is the most common infectious agent responsible for ALI. Mice were inoculated with 50 μl S. pneumoniae (serotype 19, 5×10^6 CFU/mouse i.n.). 3 hours later, animals were sacrificed (urethane i.p. […]), endotracheally cannulated and bronchoalveolar lavage performed (1.5 ml, PBS). Total and differential counts were quantified following cytospin and albumin levels measured by ELISA (Bethyl Laboratories Inc, USA).\nPAR1 antagonism was also found to decrease the number of BAL macrophages (FIG. 5b). Bronchoalveolar lavage fluid was collected and levels of thrombin-anti-thrombin (TAT) and serum albumin were quantified by ELISA (FIG. 4d, e). […] Panels show mean values for n=5/group from two separate experiments. Data were analysed by one way ANOVA with Neuman-Keuls Post Hoc test: ***p<0.0001, *p<0.05. […]"}, "[2]": {"test_system": "151 inflammatory mediators", "test": "Low density array (LDA) of 151 inflammatory mediators, lung mRNA of LPS challenged mice", "conditions": "5 mg/kg i.p. 30 min after LPS, 3 h", "experimental": "FIG. 7. […] Lungs were removed, snap frozen and homogenised under liquid nitrogen before RNA was isolated and run on a low density gene array consisting of 151 inflammatory markers (A). […] Of these genes the pro-inflammatory cytokines TNF and IL-6, and the neutrophil chemoattractants CXCL1 and CXCL2, in addition to the chemokines CCL2 and CCL7 are further depicted (D). Data were analysed by one way ANOVA with Newman-Keuls Post Hoc test:, **p<0.01, *p<0.05.\nIn order to identify potential PAR1-regulated cytokine/chemokine candidates involved in LPS-induced ALI, a low density array (LDA) designed to profile 151 inflammatory mediators was used (FIG. 7a, FIG. 9). Total RNA was extracted from pulverised frozen pulverised lung using TRIzol (see manufacture's protocol (Invitrogen)), DNase treated using a DNA free kit (Ambion) and cDNA synthesised from 1 μg RNA/per sample using a Superscript kit (Invitrogen). Expression levels of known inflammatory mediators were analysed in cDNA using Taqman low density array qPCR chips and normalized to 18 s. Transcript data was analysed using the Gene Expression Similarity Suite (Genesis) software^51 and data represented as a heat map following log2 transformation and normalisation. Relative fold-difference in expression was calculated using the ΔΔT method with the saline treated group as the calibrator reference. […] The differential gene expression profile included the upregulation of several genes known to be important for the generation of inflammatory responses, such as TNF, interleukins, CXC chemokines and CC chemokines, including CCL2, CCL3, CCL4, CCL7, CCL22, CXCL1, CXCL2, CXCL10, CXCL13 and CX3CL1."}, "[3]": {"conditions": "serotype 2, D39, after 24 hours"}, "[4]": {"conditions": "serotype 19, 5×10^6 CFU/mouse i.n., 3 h"}}, "note": "“Also recorded” adds a separate entry of the source."}
{"compound": "NCC[C@H](NC(=O)[C@H](Cc1ccc(F)c(F)c1)NC(=O)Nc1ccc2c(CN3CCCC3)nn(Cc3c(Cl)cccc3Cl)c2c1)C(=O)NCc1ccccc1", "note": "[RWJ-58259]", "values": [{"measurement": "CCL2 protein level in lung homogenates", "setting": "[1]", "result": "decreased"}, {"measurement": "CCL7 protein level in lung homogenates", "setting": "[1]", "result": "decreased"}, {"measurement": "CXCL1 protein level in lung homogenates", "setting": "[1]; listed as PAR1 antagonist", "result": "unaffected; also recorded: not affected"}, {"measurement": "CXCL2 protein level in lung homogenates", "setting": "[1]; listed as PAR1 antagonist", "result": "unaffected; also recorded: not affected"}, {"measurement": "IL-6 protein level in lung homogenates", "setting": "[1]; listed as PAR1 antagonist", "result": "did not attenuate; also recorded: not affected"}, {"measurement": "TNF protein level in lung homogenates", "setting": "[1]; listed as PAR1 antagonist", "result": "did not attenuate; also recorded: not affected"}, {"measurement": "PAR1 mediated disruption of the alveolar-capillary barrier (TAT and serum albumin in BAL fluid by ELISA)", "setting": "S. pneumoniae; serotype 2, D39, 3 h", "result": "reduce"}, {"measurement": "number of BAL macrophages", "setting": "S. pneumoniae; serotype 2, D39, 3 h", "result": "decrease"}, {"measurement": "S. pneumoniae colony counts recovered from BALF", "setting": "S. pneumoniae; serotype 2, D39, 24 hours", "result": "unaffected"}, {"measurement": "bacterial invasive disease, cfu in the lung", "setting": "S. pneumoniae; [3]", "result": "unaffected"}, {"measurement": "bacterial invasive disease, cfu in the spleen", "setting": "S. pneumoniae; [3]", "result": "unaffected"}, {"measurement": "S. pneumoniae colony counts recovered from BALF", "setting": "S. pneumoniae; serotype 2, D39, after three hours", "result": "unaffected"}, {"measurement": "neutrophil accumulation (BAL fluid)", "setting": "S. pneumoniae; [4]", "result": "reduced"}, {"measurement": "total cellular infiltration (BAL fluid leukocytes)", "setting": "S. pneumoniae; [4]", "result": "reduced"}, {"measurement": "S. pneumoniae colony counts recovered from whole lung (host defense)", "setting": "S. pneumoniae; serotype 19, 3 h", "result": "unaffected"}, {"measurement": "BAL fluid serum albumin following S. pneumoniae challenge", "setting": "S. pneumoniae; serotype not stated, 3 h", "result": "decreased"}, {"measurement": "CCL2 (MCP-1) mRNA expression in lung", "setting": "[2]", "result": "decreased"}, {"measurement": "CCL7 (MCP-3) mRNA expression in lung", "setting": "[2]", "result": "decreased"}, {"measurement": "CXCL1 mRNA expression in lung", "setting": "[2]", "result": "unaffected"}, {"measurement": "CXCL2 mRNA expression in lung", "setting": "[2]", "result": "unaffected"}, {"measurement": "IL-6 mRNA expression in lung", "setting": "[2]", "result": "unaffected"}, {"measurement": "TNF mRNA expression in lung", "setting": "[2]", "result": "unaffected"}, {"measurement": "number of genes (markers) with decreased expression following PAR1 antagonism", "setting": "[2]; array of 151 markers", "result": 25, "unit": "genes"}]}
